Legend:
[1] = biological target: T1, CFTR in F508del/F508del primary CF hBE cells (Homo sapiens, UniProt P13569, DEL508-508); experiment: Ussing chamber electrophysiology assay of CFTR potentiation in F508del/F508del CF bronchial epithelial cells (27° C.); assay type: cell-based
T1 construct: Primary cystic fibrosis human bronchial epithelial (CF hBE) cells were expanded and cultured; endogenous in cells; host or cells: primary CF human bronchial epithelial cells, genotype F508del/F508del
Summary of the method: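 Short-circuit current was recorded under zero-voltage clamp across primary CF bronchial epithelia cultured >30 days at air/liquid interface, bathed apically and basolaterally in HEPES-buffered saline. Sequential additions: amiloride (30 uM), forskolin (10 uM), compound at 4 increasing levels, CFTRinh-172 (20 uM). Responses normalised between DMSO (0%) and maximal positive-control potentiator (100%).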

[2] = biological target: T2, recombinant F508del V470 CFTR in Fischer rat thyroid (FRT) cells (Homo sapiens, UniProt P13569, DEL508-508); experiment: FRT ion flux assay of F508del CFTR potentiation; assay type: cell-based; details: FRT cells expressing F508del V470 CFTR, forskolin 20 uM, 27° C. pre-incubation
T2 construct: expressed in transfected cells
Summary of the method: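 Potentiation read as YFP quench ~21 s after iodide buffer addition, as second/initial fluorescence ratio normalised between DMSO (0%) and reference potentiator (100%).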

T2 sequence (P13569 with tags, fused parts or gaps DEL508-508): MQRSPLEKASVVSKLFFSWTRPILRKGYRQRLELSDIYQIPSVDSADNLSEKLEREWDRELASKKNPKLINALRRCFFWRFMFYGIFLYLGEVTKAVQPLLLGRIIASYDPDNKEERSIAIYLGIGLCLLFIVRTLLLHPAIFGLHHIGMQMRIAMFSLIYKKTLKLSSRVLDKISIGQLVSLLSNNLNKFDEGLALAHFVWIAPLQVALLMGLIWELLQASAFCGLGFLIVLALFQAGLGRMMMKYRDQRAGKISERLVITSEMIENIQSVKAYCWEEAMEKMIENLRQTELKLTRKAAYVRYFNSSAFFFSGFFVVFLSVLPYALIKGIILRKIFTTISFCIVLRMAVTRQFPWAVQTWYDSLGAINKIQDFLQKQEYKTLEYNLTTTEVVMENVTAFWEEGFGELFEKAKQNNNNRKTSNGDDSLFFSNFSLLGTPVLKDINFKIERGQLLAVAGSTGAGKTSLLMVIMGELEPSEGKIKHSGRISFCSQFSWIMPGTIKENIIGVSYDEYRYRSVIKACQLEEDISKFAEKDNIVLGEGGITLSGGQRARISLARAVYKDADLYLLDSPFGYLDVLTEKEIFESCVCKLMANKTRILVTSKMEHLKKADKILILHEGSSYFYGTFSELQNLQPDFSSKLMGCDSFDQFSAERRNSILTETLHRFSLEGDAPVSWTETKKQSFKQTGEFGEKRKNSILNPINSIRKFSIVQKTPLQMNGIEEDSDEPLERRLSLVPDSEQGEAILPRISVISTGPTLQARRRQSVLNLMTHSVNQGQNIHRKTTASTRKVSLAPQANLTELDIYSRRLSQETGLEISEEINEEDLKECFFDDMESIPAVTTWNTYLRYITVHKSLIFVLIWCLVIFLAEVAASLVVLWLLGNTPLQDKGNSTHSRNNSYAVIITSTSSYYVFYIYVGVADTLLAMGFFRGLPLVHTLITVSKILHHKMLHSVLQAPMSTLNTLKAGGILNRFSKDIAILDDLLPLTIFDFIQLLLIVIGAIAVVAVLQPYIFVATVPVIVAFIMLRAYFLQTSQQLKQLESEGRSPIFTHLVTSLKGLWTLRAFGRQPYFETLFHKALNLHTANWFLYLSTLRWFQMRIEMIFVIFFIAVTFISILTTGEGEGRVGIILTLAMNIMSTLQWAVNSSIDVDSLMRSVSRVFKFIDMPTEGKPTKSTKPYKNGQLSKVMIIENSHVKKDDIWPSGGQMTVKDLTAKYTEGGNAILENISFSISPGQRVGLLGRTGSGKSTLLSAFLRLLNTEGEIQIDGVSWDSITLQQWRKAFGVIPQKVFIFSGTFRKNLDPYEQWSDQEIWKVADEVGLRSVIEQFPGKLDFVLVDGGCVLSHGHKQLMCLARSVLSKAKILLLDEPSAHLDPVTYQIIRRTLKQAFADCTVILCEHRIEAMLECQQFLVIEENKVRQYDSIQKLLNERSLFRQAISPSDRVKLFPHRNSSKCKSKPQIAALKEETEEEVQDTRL
T1 sequence (P13569 with tags, fused parts or gaps DEL508-508): as above

| SMILES | EC50 [1] | EC50 [2] |
| --- | --- | --- |
| CCC(c1cn(-c2cc(F)cc(F)c2)nn1)n1cc(-c2cnc(C(F)(F)F)nc2)c2c(N)ncnc21 (single isomer, unassigned; enantiomer 1) [Example 311, 7-{1-[1-(3,5-Difluorophenyl)-1H-1,2,3-triazol-4-yl]propyl}-5-[2-(trifluoromethyl)pyrimidin-5-yl]-7H-pyrrolo[2,3-d]pyrimidin-4-amine, enantiomer 1] | 111 nM | 250 nM |
| CC(c1cn(-c2ccc(F)cc2F)nn1)n1c(C#N)c(-c2ccc(OC3CC3)nc2)c2c(N)ncnc21 (single isomer, unassigned; enantiomer 1) [Example 320, 4-Amino-5-[6-(cyclopropyloxy)pyridin-3-yl]-7-{1-[1-(2,4-difluorophenyl)-1H-1,2,3-triazol-4-yl]ethyl}-7H-pyrrolo[2,3-d]pyrimidine-6-carbonitrile, enantiomer 1] | 46.2 nM | 120 nM |
| CCC(c1cn(-c2ccc(F)c(F)c2)nn1)n1c(C#N)c(-c2cnc(C(F)(F)F)nc2)c2c(N)ncnc21 (single isomer, unassigned; enantiomer 1) [Example 322, 4-Amino-7-{1-[1-(3,4-difluorophenyl)-1H-1,2,3-triazol-4-yl]propyl}-5-[2-(trifluoromethyl)pyrimidin-5-yl]-7H-pyrrolo[2,3-d]pyrimidine-6-carbonitrile, enantiomer 1] | 33.8 nM | 49.9 nM |
| COc1ncccc1-c1cn(C(C)c2cn(-c3ccccc3F)nn2)c2ncnc(N)c12 (single isomer, unassigned; enantiomer 2) [Example 114, (+) 7-{1-[1-(2-Fluorophenyl)-1H-1,2,3-triazol-4-yl]ethyl}-5-(2-methoxypyridin-3-yl)-7H-pyrrolo[2,3-d]pyrimidin-4-amine, enantiomer 2] | 75.8 nM | 36.2 nM |
| CC(c1cn(-c2ccccc2F)nn1)n1cc(-c2ccc(C#N)c(F)c2)c2c(N)ncnc21 (single isomer, unassigned; enantiomer 2) [Example 116, 4-(4-Amino-7-{1-[1-(2-fluorophenyl)-1H-1,2,3-triazol-4-yl]ethyl}-7H-pyrrolo[2,3-d]pyrimidin-5-yl)-2-fluorobenzonitrile, enantiomer 2] | 26 nM | 36 nM |
| CC(c1cn(-c2ccccc2F)nn1)n1cc(-c2ccc(OC3CC3)cc2)c2c(N)ncnc21 (single isomer, unassigned; enantiomer 2) [Example 118, (−) 5-[4-(Cyclopropyloxy)phenyl]-7-{1-[1-(2-fluorophenyl)-1H-1,2,3-triazol-4-yl]ethyl}-7H-pyrrolo[2,3-d]pyrimidin-4-amine, enantiomer 2] | 162 nM | 378 nM |
| CC(c1cn(-c2ccccc2F)nn1)n1cc(-c2ccc(OC3CC3)nc2)c2c(N)ncnc21 (single isomer, unassigned; enantiomer 2) [Example 120, (+) 5-[6-(Cyclopropyloxy)pyridin-3-yl]-7-{1-[1-(2-fluorophenyl)-1H-1,2,3-triazol-4-yl]ethyl}-7H-pyrrolo[2,3-d]pyrimidin-4-amine, enantiomer 2] | 5.48 nM | 33.4 nM |
| CCC(c1cn(-c2ccccc2)nn1)n1cc(-c2ccc(OC)nc2)c2c(N)ncnc21 (single isomer, unassigned; enantiomer 2) [Example 126, 5-(6-Methoxypyridin-3-yl)-7-[1-(1-phenyl-1H-1,2,3-triazol-4-yl)propyl]-7H-pyrrolo[2,3-d]pyrimidin-4-amine, enantiomer 2] | 12 nM | 21.6 nM |
| CCC(c1cn(-c2ccccc2)nn1)n1cc(-c2cncnc2OC)c2c(N)ncnc21 (single isomer, unassigned; enantiomer 2) [Example 128, (+) 5-(4-Methoxypyrimidin-5-yl)-7-[1-(1-phenyl-1H-1,2,3-tnazol-4-yl)propyl]-7H-pyrrolo[2,3-d]pyrimidin-4-amine, enantiomer 2] | 42.6 nM | 19.1 nM |
| CCC(c1cn(-c2ccccc2)nn1)n1cc(-c2cnc(C(F)(F)F)nc2)c2c(N)ncnc21 (single isomer, unassigned; enantiomer 2) [Example 130, 7-[1-(1-Phenyl-1H-1,2,3-triazol-4-yl)propyl]-5-[2-(trifluoromethyl)pyrimidin-5-yl]-7H-pyrrolo[2,3-d]pyrimidin-4-amine, enantiomer 2] | 187 nM | 234 nM |
| CCC(c1cn(-c2ccccc2F)nn1)n1cc(-c2ccc(Cl)cc2)c2c(N)ncnc21 (single isomer, unassigned; enantiomer 2) [Example 132, (+) 5-(4-Chlorophenyl)-7-{1-[1-(2-fluorophenyl)-1H-1,2,3-triazol-4-yl]propyl}-7H-pyrrolo[2,3-d]pyrimidin-4-amine, enantiomer 2] | 11.3 nM | 38 nM |
| CCC(c1cn(-c2ccccc2F)nn1)n1cc(-c2nccnc2OC)c2c(N)ncnc21 (single isomer, unassigned; enantiomer 2) [Example 136, (+) 7-{1-[1-(2-Fluorophenyl)-1H-1,2,3-triazol-4-yl]propyl}-5-(3-methoxypyrazin-2-yl)-7H-pyrrolo[2,3-d]pyrimidin-4-amine, enantiomer 2] | 3.46 nM | 15.3 nM |
| CCC(c1cn(-c2ccccc2F)nn1)n1cc(-c2cnc(C(F)(F)F)nc2)c2c(N)ncnc21 (single isomer, unassigned; enantiomer 2) [Example 138, 7-{1-[1-(2-Fluorophenyl)-1H-1,2,3-triazol-4-yl]propyl}-5-[2-(trifluoromethyl)pyrimidin-5-yl]-7H-pyrrolo[2,3-d]pyrimidin-4-amine, enantiomer 2] | 261 nM | 266 nM |
| CCC(c1cn(-c2ccccc2F)nn1)n1cc(-c2cc(F)cnc2OC)c2c(N)ncnc21 (single isomer, unassigned; enantiomer 2) [Example 140, (−) 5-(5-Fluoro-2-methoxypyridin-3-yl)-7-{1-[1-(2-fluorophenyl)-1H-1,2,3-triazol-4-yl]propyl}-7H-pyrrolo[2,3-d]pyrimidin-4-amine, enantiomer 2] | 63 nM | 171 nM |
| CCC(c1cn(-c2ccccc2F)nn1)n1cc(-c2ccc(OC(F)F)nc2)c2c(N)ncnc21 (single isomer, unassigned; enantiomer 2) [Example 142, (+) 5-[6-(Difluoromethoxy)pyridin-3-yl]-7-{1-[1-(2-fluorophenyl)-1H-1,2,3-triazol-4-yl]propyl}-7H-pyrrolo[2,3-d]pyrimidin-4-amine, enantiomer 2] | 4.58 nM | 5.02 nM |
| CCC(c1cn(-c2ccccc2F)nn1)n1cc(-c2cc[nH]n2)c2c(N)ncnc21 (single isomer, unassigned; enantiomer 2) [Example 148, 7-{1-[1-(2-Fluorophenyl)-1H-1,2,3-triazol-4-yl]propyl}-5-(1H-pyrazol-3-yl)-7H-pyrrolo[2,3-d]pyrimidin-4-amine, enantiomer 2] | 25.7 nM | 12.4 nM |
| CCC(c1cn(-c2ccc(F)cc2)nn1)n1cc(-c2cncnc2OC)c2c(N)ncnc21 (single isomer, unassigned; enantiomer 2) [Example 150, (−) 7-{1-[1-(4-Fluorophenyl)-1H-1,2,3-triazol-4yl]propyl}-5-(4-methoxypyrimidin-5-yl)-7H-pyrrolo[2,3-d]pyrimidin-4-amine, enantiomer 2] | 926 nM | 298 nM |
| CCC(c1cn(-c2ccc(F)c(F)c2)nn1)n1cc(-c2cncnc2OC)c2c(N)ncnc21 (single isomer, unassigned; enantiomer 2) [Example 152, (−) 7-{1-[1-(3,4-Difluorophenyl)-1H-1,2,3-triazol-4-yl]propyl}-5-(4-methoxypyrimidin-5-yl)-7H-pyrrolo[2,3-d]pyrimidin-4-amine, enantiomer 2] | 445 nM | 182 nM |
| CCC(c1cn(-c2ccc(F)c(F)c2)nn1)n1cc(-c2cnc(C(F)(F)F)nc2)c2c(N)ncnc21 (single isomer, unassigned; enantiomer 2) [Example 154, 7-{1-[1-(3,4-Difluorophenyl)-1H-1,2,3-triazol-4-yl]propyl}-5-[2-(trifluoromethyl)pyrimidin-5-yl]-7H-pyrrolo[2,3-d]pyrimidin-4-amine, enantiomer 2] | 327 nM | 630 nM |
| CCC(c1cn(-c2ccc(F)c(F)c2)nn1)n1cc(-c2cc(F)cnc2OC)c2c(N)ncnc21 (single isomer, unassigned; enantiomer 2) [Example 156, 7-{1-[1-(3,4-Difluorophenyl)-1H-1,2,3-triazol-4-yl]propyl}-5-(5-fluoro-2-methoxypyridin-3-yl)-7H-pyrrolo[2,3-d]pyrimidin-4-amine, enantiomer 2] | 57.6 nM | 230 nM |
| CCC(c1cn(-c2ccc(F)c(F)c2)nn1)n1cc(-c2cnc(OC)c(F)c2)c2c(N)ncnc21 (single isomer, unassigned; enantiomer 2) [Example 158, 7-{1-[1-(3,4-Difluorophenyl)-1H-1,2,3-triazol-4-yl]propyl}-5-(5-fluoro-6-methoxypyridin-3-yl)-7H-pyrrolo[2,3-d]pyrimidin-4-amine, enantiomer 2] | 19.5 nM | 112 nM |
